Data as given in patent publication US10669240B2, “5-substituted indazole-3-carboxamides and preparation and use thereof” (Samumed, LLC, priority 2014, dated 2020).

Target: DYRK1A (Homo sapiens (Human), UniProt Q13627)
Assay: DYRK1A activity Tau assay: pSer396 Tau in SH-SY5Y cells by ELISA / western blot
Format: cell-based
Conditions: overnight (16-18 h) exposure

`CN1CC2(CCC(NC(=O)c3n[nH]c4ccc(-c5cncc(F)c5)cc34)CC2)C1` [Compound 1289, 5-(5-Fluoropyridin-3-yl)-N-(2-methyl-2-azaspiro[3.5]nonan-7-yl)-1H-indazole-3-carboxamide] showed an EC50 of 29 nM.
With `CC(C)N1CCC(NC(=O)c2n[nH]c3ccc(-c4cccc(F)c4F)cc23)CC1` [Compound 92, 5-(2,3-Difluorophenyl)-N-(1-isopropylpiperidin-4-yl)-1H-indazole-3-carboxamide] the EC50 was 100 nM.
Work on `CC(C)(F)CN1CCC(NC(=O)c2n[nH]c3ccc(-c4cnccn4)cc23)CC1` [Compound 1319, N-(1-(2-Fluoro-2-methylpropyl)piperidin-4-yl)-5-(pyrazin-2-yl)-1H-indazole-3-carboxamide] yielded an EC50 of 97 nM.
In the case of `CC(C)(C)NC(=O)c1n[nH]c2ccc(-c3cncc(CN4CCCCC4)c3)cc12` [Compound 1202, N-(tert-Butyl)-5-(5-(piperidin-1-ylmethyl)pyridin-3-yl)-1H-indazole-3-carboxamide], the EC50 is reported as 144 nM.
With `CC(F)(F)CN1CCC(NC(=O)c2n[nH]c3ccc(-c4cncc(F)c4)cc23)CC1` [Compound 1301, N-(1-(2,2-Difluoropropyl)piperidin-4-yl)-5-(5-fluoropyridin-3-yl)-1H-indazole-3-carboxamide] the EC50 was 23 nM.
`O=C(Nc1ccc(C(F)(F)F)cn1)c1n[nH]c2ccc(-c3cccnc3)cc12` [Compound 40, 5-(Pyridin-3-yl)-N-(5-(trifluoromethyl)pyridin-2-yl)-1H-indazole-3-carboxamide] was tested, and the EC50 was 372 nM.
For `CC(C)NC(=O)c1n[nH]c2ccc(-c3cccnc3)cc12` [Compound 7, N-Isopropyl-5-(pyridin-3-yl)-1H-indazole-3-carboxamide], the EC50 was 55 nM.
With `CC(C)NC(=O)c1n[nH]c2ccc(-c3cncc(N4CCCC4)c3)cc12` [Compound 1245, N-Isopropyl-5-(5-(pyrrolidin-1-yl)pyridin-3-yl)-1H-indazole-3-carboxamide] the EC50 was 25 nM.
`O=C(NC1(c2ccccc2)CC1)c1n[nH]c2ccc(-c3cncc(CN4CCCCC4)c3)cc12` [Compound 36, N-(1-Phenylcyclopropyl)-5-(5-(piperidin-1-ylmethyl)pyridin-3-yl)-1H-indazole-3-carboxamide] was tested, and the EC50 was 158 nM.
`CCN1CCC(NC(=O)c2n[nH]c3ccc(-c4cnc5ccc(F)cc5c4)cc23)CC1` [Compound 1295, N-(1-Ethylpiperidin-4-yl)-5-(6-fluoroquinolin-3-yl)-1H-indazole-3-carboxamide] was tested, and the EC50 was 340 nM.
`O=C(NCc1cccc(F)c1)c1n[nH]c2ccc(-c3cc(F)cc(CN4CCCCC4)c3)cc12` [Compound 30, 5-(3-Fluoro-5-(piperidin-1-ylmethyl)phenyl)-N-(3-fluorobenzyl)-1H-indazole-3-carboxamide] was tested, and the EC50 was 120 nM.
In the case of `CCN1CCC(NC(=O)c2n[nH]c3ccc(-c4cnc5ccccc5c4)cc23)CC1` [Compound 1294, N-(1-Ethylpiperidin-4-yl)-5-(quinolin-3-yl)-1H-indazole-3-carboxamide], the EC50 is reported as 238 nM.
Work on `CC(C)(F)CN1CCC(NC(=O)c2n[nH]c3ccc(-c4cccnc4F)cc23)CC1` [Compound 1320, N-(1-(2-Fluoro-2-methylpropyl)piperidin-4-yl)-5-(2-fluoropyridin-3-yl)-1H-indazole-3-carboxamide] yielded an EC50 of 42 nM.
With `O=C(NC1CC1)c1n[nH]c2ccc(-c3cncc(CN4CCCC4)c3)cc12` [Compound 148, N-Cyclopropyl-5-(5-(pyrrolidin-1-ylmethyl)pyridin-3-yl)-1H-indazole-3-carboxamide] the EC50 was 11 nM.
Compound `O=C(NC1CCN(CC(F)F)CC1)c1n[nH]c2ccc(-c3cccnc3)cc12` [Compound 1181, N-(1-(2,2-Difluoroethyl)piperidin-4-yl)-5-(pyridin-3-yl)-1H-indazole-3-carboxamide] has an EC50 of 6 nM.
Compound `CC(C)(C)N1CCC(NC(=O)c2n[nH]c3ccc(-c4cncc(N5CCCC5)c4)cc23)CC1` [Compound 293, N-(1-(tert-Butyl)piperidin-4-yl)-5-(5-(pyrrolidin-1-yl)pyridin-3-yl)-1H-indazole-3-carboxamide] has an EC50 of 22 nM.
With `O=C(NC1CC1)c1n[nH]c2ccc(-c3cncc(CN4CCC4)c3)cc12` [Compound 1271, 5-(5-(Azetidin-1-ylmethyl)pyridin-3-yl)-N-cyclopropyl-1H-indazole-3-carboxamide] the EC50 was 19 nM.
In the case of `O=C(Nc1ccnc(N2CCCCC2)c1)c1n[nH]c2ccc(-c3cncc(CN4CCCCC4)c3)cc12` [Compound 101, N-(2-(Piperidin-1-yl)pyridin-4-yl)-5-(5-(piperidin-1-ylmethyl)pyridin-3-yl)-1H-indazole-3-carboxamide], the EC50 is reported as 1 nM.
With `O=C(NC1CCOCC1)c1n[nH]c2ccc(-c3cccc(F)c3)cc12` [Compound 13, 5-(3-Fluorophenyl)-N-(tetrahydro-2H-pyran-4-yl)-1H-indazole-3-carboxamide] the EC50 was 332 nM.
`CC(C)(C)NC(=O)c1n[nH]c2ccc(-c3cccnc3)cc12` [Compound 1253, N-(tert-Butyl)-5-(pyridin-3-yl)-1H-indazole-3-carboxamide] was tested, and the EC50 was 150 nM.
`CN(C)Cc1cncc(-c2ccc3[nH]nc(C(=O)NC(C)(C)C)c3c2)c1` [Compound 1198, N-(tert-Butyl)-5-(5-((dimethylamino)methyl)pyridin-3-yl)-1H-indazole-3-carboxamide] was tested, and the EC50 was 491 nM.
In the case of `O=C(NC1(c2ccccc2)CC1)c1n[nH]c2ccc(-c3cncc(CN4CCCC4)c3)cc12` [Compound 34, N-(1-Phenylcyclopropyl)-5-(5-(pyrrolidin-1-ylmethyl)pyridin-3-yl)-1H-indazole-3-carboxamide], the EC50 is reported as 233 nM.
Compound `CC(C)NC(=O)c1n[nH]c2ccc(-c3cncc4ccccc34)cc12` [Compound 1249, N-Isopropyl-5-(isoquinolin-4-yl)-1H-indazole-3-carboxamide] has an EC50 of 148 nM.
`CN1CCC(NC(=O)c2n[nH]c3ccc(-c4ccc(F)cc4)cc23)CC1` [Compound 17, 5-(4-Fluorophenyl)-N-(1-methylpiperidin-4-yl)-1H-indazole-3-carboxamide] was tested, and the EC50 was 9000 nM.
Compound `CCN1CCC(NC(=O)c2n[nH]c3ccc(-c4cccc(OC)c4F)cc23)CC1` [Compound 1338, N-(1-Ethylpiperidin-4-yl)-5-(2-fluoro-3-methoxyphenyl)-1H-indazole-3-carboxamide] has an EC50 of 1800 nM.
`CN1CCC(NC(=O)c2n[nH]c3cc(F)c(-c4cccnc4)cc23)CC1` [Compound 1290, 6-Fluoro-N-(1-methylpiperidin-4-yl)-5-(pyridin-3-yl)-1H-indazole-3-carboxamide] showed an EC50 of 21 nM.
For `CN(C)Cc1cncc(-c2ccc3[nH]nc(C(=O)NC4Cc5ccccc5C4)c3c2)c1` [Compound 23, N-(2,3-Dihydro-1H-inden-2-yl)-5-(5-((dimethylamino)methyl)pyridin-3-yl)-1H-indazole-3-carboxamide], the EC50 was 31 nM.
For `O=C(NC1CCCCC1)c1n[nH]c2ccc(-c3cncnc3)cc12` [Compound 1281, N-Cyclohexyl-5-(pyrimidin-5-yl)-1H-indazole-3-carboxamide], the EC50 was 64 nM.
For `O=C(NC1CCN(CC(F)F)CC1)c1n[nH]c2ccc(-c3cccc(F)c3F)cc12` [Compound 1161, N-(1-(2,2-Difluoroethyl)piperidin-4-yl)-5-(2,3-difluorophenyl)-1H-indazole-3-carboxamide], the EC50 was 134 nM.
Compound `O=C(NCCN1CCCCC1)c1n[nH]c2ccc(-c3cccc(F)c3F)cc12` [Compound 1266, 5-(2,3-Difluorophenyl)-N-(2-(piperidin-1-yl)ethyl)-1H-indazole-3-carboxamide] has an EC50 of 75 nM.
Compound `C#CCN1CCC(NC(=O)c2n[nH]c3ccc(-c4cccnc4)cc23)CC1` [Compound 349, N-(1-(Prop-2-yn-1-yl)piperidin-4-yl)-5-(pyridin-3-yl)-1H-indazole-3-carboxamide] has an EC50 of 5 nM.
`CCC(CC)NC(=O)c1n[nH]c2ccc(-c3cncc(N4CCCC4)c3)cc12` [Compound 1215, N-(Pentan-3-yl)-5-(5-(pyrrolidin-1-yl)pyridin-3-yl)-1H-indazole-3-carboxamide] showed an EC50 of 199 nM.
Work on `CN1CCC(NC(=O)c2n[nH]c3ccc(-c4ccccc4)cc23)CC1` [Compound 14, N-(1-Methylpiperidin-4-yl)-5-phenyl-1H-indazole-3-carboxamide] yielded an EC50 of 1150 nM.
In the case of `O=C(NC1CCCCC1)c1n[nH]c2ccc(-c3cccc(F)c3)cc12` [Compound 12, N-Cyclohexyl-5-(3-fluorophenyl)-1H-indazole-3-carboxamide], the EC50 is reported as greater than 10000 nM.
Work on `CN1CCC(NC(=O)c2n[nH]c3ccc(-c4cccc(F)c4)cc23)CC1` [Compound 15, 5-(3-Fluorophenyl)-N-(1-methylpiperidin-4-yl)-1H-indazole-3-carboxamide] yielded an EC50 of 324 nM.
Compound `O=C(NC1CCN(CCF)CC1)c1n[nH]c2ccc(-c3cncc(Cl)c3)cc12` [Compound 1296, 5-(5-Chloropyridin-3-yl)-N-(1-(2-fluoroethyl)piperidin-4-yl)-1H-indazole-3-carboxamide] has an EC50 of 27 nM.
For `O=C(NCc1cc(F)cc(F)c1)c1n[nH]c2ccc(-c3cc(F)cc(CN4CCCCC4)c3)cc12` [Compound 31, N-(3,5-Difluorobenzyl)-5-(3-fluoro-5-(piperidin-1-ylmethyl)phenyl)-1H-indazole-3-carboxamide], the EC50 was 118 nM.
In the case of `Cc1ncc(-c2ccc3[nH]nc(C(=O)NC4CCN(CC(C)(C)F)CC4)c3c2)cn1` [Compound 1322, N-(1-(2-Fluoro-2-methylpropyl)piperidin-4-yl)-5-(2-methylpyrimidin-5-yl)-1H-indazole-3-carboxamide], the EC50 is reported as 534 nM.
`CC(C)(C)NC(=O)c1n[nH]c2ccc(-c3cncc(CN4CC(F)(F)C4)c3)cc12` [Compound 1210, N-(tert-Butyl)-5-(5-((3,3-difluoroazetidin-1-yl)methyl)pyridin-3-yl)-1H-indazole-3-carboxamide] was tested, and the EC50 was 128 nM.
For `CC(C)NC(=O)c1n[nH]c2ccc(-c3cccc(F)c3F)cc12` [Compound 140, 5-(2,3-Difluorophenyl)-N-isopropyl-1H-indazole-3-carboxamide], the EC50 was 576 nM.
`O=C(NC1CCCC1)c1n[nH]c2ccc(-c3cccnc3)cc12` [Compound 179, N-Cyclopentyl-5-(pyridin-3-yl)-1H-indazole-3-carboxamide] was tested, and the EC50 was 9 nM.
`CC(C)CNC(=O)c1n[nH]c2ccc(-c3ccc(F)nc3)cc12` [Compound 1335, 5-(6-Fluoropyridin-3-yl)-N-isobutyl-1H-indazole-3-carboxamide] showed an EC50 of 62 nM.
